# Values quoted from earlier work as cited in the CATMoS acute toxicity set (Mansouri et al. 2021).
# Experiment: rat acute oral toxicity
# Settings: in vivo
row,SMILES,LD50
1,CCCCCCCCCCCC[N+](C)(C)Cc1ccc(CC)cc1,700 mg/kg
2,COc1cc([N+](=O)[O-])ccc1N,997 mg/kg
3,O=C1CN2CCOC2(c2ccccc2Cl)c2cc(Cl)ccc2N1 (stereo unspecified),1780 mg/kg
4,C=CC(=O)NC,476 mg/kg
5,CCCCNCCC[Si](OC)(OC)OC,12800 mg/kg
6,CNC(=O)Oc1cccc2c1OC(C)(C)C2=O,295 mg/kg
7,Nc1ccc(S(=O)(=O)O)cc1,5380 mg/kg
8,N#CCON=C(C#N)c1ccccc1,2280 mg/kg
9,O=C(Cl)c1cccc(C(=O)Cl)c1,2200 mg/kg
10,O=C(O)c1ccc2c(c1)CCC(Cn1ccnc1)C2 (stereo unspecified),1990 mg/kg
11,C(=NCCCCCCN=Cc1ccco1)c1ccco1,490 mg/kg
12,CCOP(=S)(OCC)Oc1cc(C)n(C)c(=O)c1,5.97 mg/kg
13,CN1CCCC(=C(c2cccs2)c2cccs2)C1,10000 mg/kg
14,CCCS(=O)(=O)/C=C/S(=O)(=O)CCC,200 mg/kg
15,CCCCOC(CBr)c1ccc(C2CCCC2)cc1 (stereo unspecified),250 mg/kg
16,C=CC(COC)c1ccccc1OC(=O)NC (stereo unspecified),100 mg/kg
17,CCCCCCNC(=O)n1cc(F)c(=O)[nH]c1=O,268 mg/kg
18,O=C(Cn1ccnc1)c1ccc2c(c1)Cc1ccccc1-2,4550 mg/kg
19,O=C(Nc1cc(F)ccc1F)NC1CC1,152 mg/kg
20,C=COC(=O)CCC,8530 mg/kg
21,C1=CCCCC1,1950 mg/kg

row,SMILES,LD50
1,CC(=O)Nc1ccc2c(c1)sc1ccccc12,1200 mg/kg
2,CCC(=O)OC(CC)(c1ccccc1)C1CCN(C)C1 (stereo unspecified),460 mg/kg
3,CC(C)Cc1ccc(C(C)C(=O)OCc2ccccn2)cc1 (stereo unspecified),1440 mg/kg
4,COC(=O)C1C2C=CC(C2)C1C(=O)OC (stereo unspecified),1000 mg/kg
5,CCCCOCCOCCOC(=O)CCCCC(=O)OCCOCCOCCCC,6000 mg/kg
6,CCOP(=S)(OCC)SCC(=O)NC(C)C,8 mg/kg
7,C#CC(O)C=CC (stereo unspecified),34 mg/kg
8,O=C(CN1CC1)NCCCCCCCCNC(=O)CN1CC1,225 mg/kg
9,C#CCN1CCC2=C(C1)c1c(OC(=O)CCCN3CCCCC3)cc(C(C)C(C)CCCCC)cc1OC2(C)C (stereo unspecified),130 mg/kg
10,Cc1ccc(N)nc1,200 mg/kg
11,Cc1ccccc1C(=O)NC1=NCCS1,912 mg/kg
12,CCCCC[Si](OCC)(OCC)OCC,20000 mg/kg
13,CCCCOCCOCCOCCOCCOCCCC,6500 mg/kg
14,CC(C)=Cc1ccc(C(C)C(=O)O)cc1 (stereo unspecified),1300 mg/kg
15,ClC1=C(Cl)C2(Cl)C3C(Br)C=CC3C1(Cl)C2(Cl)Cl (stereo unspecified),1040 mg/kg
16,CCOC(=O)C1(c2ccccc2)CCN(CCOCc2ccccc2)CC1,284 mg/kg
17,CCCCCCCCCCCCC(Br)C(=O)O (stereo unspecified),800 mg/kg
18,Cn1c(=O)c2c(ncn2CCO)n(C)c1=O,710 mg/kg
19,COS(=O)(=O)OC,205 mg/kg
20,OCC(F)(F)C(F)(F)C(F)(F)C(F)(F)C(F)(F)C(F)(F)C(F)(F)C(F)F,4400 mg/kg
21,CON=C(Cc1cccnc1)c1ccc(Cl)cc1Cl,1700 mg/kg

row,SMILES,LD50
1,ClCC(Cl)=C(Cl)C(Cl)Cl,472 mg/kg
2,CC(C(=O)OCCCS(=O)(=O)O)c1ccc(-c2ccccc2)cc1 (stereo unspecified),280 mg/kg
3,CCCC(=NOCC)C1=C(O)CC(C2CCCSC2)CC1=O (stereo unspecified),3940 mg/kg
4,CC(=O)NNC(=O)c1ccccn1,673 mg/kg
5,COP(=S)(OC)SCn1nc(Br)ccc1=O,3.75 mg/kg
6,Cc1ccc(NCCCc2ccccc2)cc1,1600 mg/kg
7,C/C=N/N(C)C=O,320 mg/kg
8,C1CCC(CNC2=NCCS2)CC1,50 mg/kg
9,CN1CCN(C(=O)Cn2c(=O)sc3ccc(Cl)cc32)CC1,640 mg/kg
10,CO[C@@H]1[C@@H](OC(N)=O)[C@@H](O)[C@H](Oc2ccc3c(O)c(NC(=O)c4ccc(O)c(CC=C(C)C)c4)c(=O)oc3c2C)OC1(C)C,3500 mg/kg
11,CCC1OC(C)C(=NOC(=O)NC)S1 (stereo unspecified),8 mg/kg
12,CC(O)CNC(C)(C)Cc1ccc(Cl)cc1 (stereo unspecified),150 mg/kg
13,CC(=O)C=Cc1ccc2c(c1)OCO2,4000 mg/kg
14,COc1ccc(-c2ccccc2)cc1CN1CCCC1,28 mg/kg
15,CCOP(=O)(OCC)SCCS(=O)CC (stereo unspecified),2 mg/kg
16,CCNc1cccc(C)c1,580 mg/kg
17,CCOP(=S)(OCC)Oc1ccc2c(C)cc(=O)oc2c1,14.7 mg/kg
18,C=C(Cl)C(=O)OC,68 mg/kg
19,O=C(Oc1ccccc1)c1ccccc1O,3000 mg/kg
